Source: US8178579B2, “Dioxanes and uses thereof” (President and Fellows of Harvard College, priority 2001, dated 2012)

Columns and labels:
human FKBP12 = human FKBP12 (Homo sapiens, UniProt P62942); assay: small molecule microarray protein-binding assay; conditions: labeled protein
Procedure: In addition to phenotypic assays, over fifty protein-binding assays have been performed with the 1,3-dioxane library using small molecule microarrays (MacBeath et al. J. Am. Chem. Soc. 1999, 121, 7967-7968; Peterson et al. Proc. Natl. Acad. Sci. U.S.A. 2000, 97, 12965-12969). The microarrays were constructed by covalent attachment of […] of each stock solution to a glass slide using a contact printing robot. Labeled proteins were used to probe the microarray for small molecule partners.

α-tubulin deacetylation = conditions: cited from earlier work
[1] = test system: α-tubulin acetylation in the presence of ITSA1; conditions: cited from earlier work
[2] = test system: cyclin B degradation pathway; assay: Xenopus laevis oocyte extract assay of cyclin B degradation; conditions: 4 μL assay volume
Source text: (§1) Biologically active 1,3-dioxanes have been identified in phenotypic assays in cell culture, zebrafish, and Xenopus laevis oocyte extract (FIG. 22).

HDAC1 = molecular target: T1, HDAC1 (Homo sapiens, UniProt Q13547); assay: HDAC assay, [3H]acetate-incorporated histones with immunoprecipitated FLAG-tagged HDAC1; type: biochemical; conditions: calculated IC50, data in duplicate, at least two experiments; read-out: IC50 against HDAC1
T1 construct: made in house; host or cells: TAg-Jurkat cells, transient transfection, then immunoprecipitation
T1 sequence (Q13547 whole entry): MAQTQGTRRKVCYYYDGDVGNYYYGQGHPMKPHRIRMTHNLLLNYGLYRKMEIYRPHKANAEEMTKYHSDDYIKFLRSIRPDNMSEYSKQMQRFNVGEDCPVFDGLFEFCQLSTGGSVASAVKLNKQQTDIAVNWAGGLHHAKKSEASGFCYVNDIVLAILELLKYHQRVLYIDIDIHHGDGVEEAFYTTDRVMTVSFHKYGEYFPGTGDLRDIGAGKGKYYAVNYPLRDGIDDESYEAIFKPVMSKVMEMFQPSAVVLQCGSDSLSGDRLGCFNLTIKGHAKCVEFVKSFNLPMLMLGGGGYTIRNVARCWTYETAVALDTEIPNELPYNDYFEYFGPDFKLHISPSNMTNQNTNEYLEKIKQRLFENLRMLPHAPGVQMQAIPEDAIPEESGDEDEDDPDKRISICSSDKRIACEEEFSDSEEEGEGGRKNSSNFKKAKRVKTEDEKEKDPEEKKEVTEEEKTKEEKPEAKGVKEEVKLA
Procedure: (§2) Cell culture and Transfections. TAg-Jurkat cells were transfected by electroporation with 5 μg of FLAG-epitope-tagged pBJ5 constructs (as described in ref. 5c) for expression of recombinant proteins. Cells were harvested 48 h posttransfection.
HDAC assays. [^3H]Acetate-incorporated histones were isolated from butyrate-treated HeLa cells by hydroxyapatite chromatography (as described in Tong, et al. Nature 1997, 395, 917-921.) Immunoprecipitates were incubated with 1.4 μg (10,000 dpm) histones for 3 h at 37° C. HDAC activity was determined by scintillation counting of the ethyl acetate-soluble [^3H]acetic acid (as described in Taunton, et al., Science 1996, 272, 408-411). Compounds were added in DMSO such that final assay concentrations were 1% DMSO. IC50s were calculated using Prism 3.0 software. Curve fitting was done without constraints using the program's Sigmoidal-Dose Response parameters. All data points were acquired in duplicate and IC50s are calculated from the composite results of at least two separate experiments.

cyclin B degradation = cyclin B degradation assay in HeLa cells; type: cell-based; conditions: 30 μL assay volume
Source text: as §1

HDAC6 = molecular target: T2, HDAC6 (Homo sapiens, UniProt Q9UBN7); assay: HDAC assay, [3H]acetate-incorporated histones with immunoprecipitated FLAG-tagged HDAC6 (HDAC6F); type: biochemical; parameters: made in house; host or cells: TAg Jurkat cells, transient transfection, anti-FLAG M2 immunoprecipitation; conditions: calculated IC50, data in duplicate, at least two experiments; read-out: IC50 against HDAC6
T2 sequence (Q9UBN7 1-1215): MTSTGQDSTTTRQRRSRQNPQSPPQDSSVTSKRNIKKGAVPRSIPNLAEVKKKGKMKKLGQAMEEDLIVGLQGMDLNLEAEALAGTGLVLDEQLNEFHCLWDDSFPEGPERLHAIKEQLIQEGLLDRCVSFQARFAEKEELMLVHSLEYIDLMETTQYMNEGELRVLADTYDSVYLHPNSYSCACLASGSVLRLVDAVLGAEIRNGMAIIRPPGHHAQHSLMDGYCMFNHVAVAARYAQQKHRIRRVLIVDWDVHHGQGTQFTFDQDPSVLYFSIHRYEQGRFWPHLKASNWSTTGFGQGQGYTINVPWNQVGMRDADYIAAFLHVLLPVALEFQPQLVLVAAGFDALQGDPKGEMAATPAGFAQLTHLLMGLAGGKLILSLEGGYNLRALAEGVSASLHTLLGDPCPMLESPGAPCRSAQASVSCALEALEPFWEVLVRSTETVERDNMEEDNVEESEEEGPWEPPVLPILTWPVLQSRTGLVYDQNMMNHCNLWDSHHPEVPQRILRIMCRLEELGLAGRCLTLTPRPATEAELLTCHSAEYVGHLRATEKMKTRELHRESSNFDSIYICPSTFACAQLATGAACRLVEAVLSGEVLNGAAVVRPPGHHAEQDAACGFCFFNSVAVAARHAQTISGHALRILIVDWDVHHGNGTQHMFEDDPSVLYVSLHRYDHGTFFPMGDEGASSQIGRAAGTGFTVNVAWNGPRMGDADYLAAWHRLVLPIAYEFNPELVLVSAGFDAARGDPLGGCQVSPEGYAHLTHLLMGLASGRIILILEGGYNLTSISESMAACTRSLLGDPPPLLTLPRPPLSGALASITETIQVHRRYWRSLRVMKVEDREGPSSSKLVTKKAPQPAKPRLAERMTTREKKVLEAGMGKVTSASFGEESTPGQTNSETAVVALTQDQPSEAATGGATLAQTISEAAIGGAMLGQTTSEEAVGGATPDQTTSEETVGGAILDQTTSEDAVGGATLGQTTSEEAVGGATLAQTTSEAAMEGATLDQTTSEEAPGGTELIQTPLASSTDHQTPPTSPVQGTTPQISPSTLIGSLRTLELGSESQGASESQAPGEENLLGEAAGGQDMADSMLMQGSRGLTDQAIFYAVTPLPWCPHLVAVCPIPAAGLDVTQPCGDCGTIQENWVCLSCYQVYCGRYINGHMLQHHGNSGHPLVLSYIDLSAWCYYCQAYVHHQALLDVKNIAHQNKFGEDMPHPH
Procedure: as §2
HDAC assays. […] Compounds were added in DMSO such that final assay concentrations were 1% DMSO. IC50s were calculated using Prism 3.0 software. Curve fitting was done without constraints using the program's Sigmoidal-Dose Response parameters. All data points were acquired in duplicate and IC50s are calculated from the composite results of at least two separate experiments.
Tubulin and MAPs were isolated from bovine brain as described [See http://mitchison.med.harvard.edu/protocols/tubprep.html]. Whole brain and fractions from phosphocellulose chromatography were blotted for HDAC6 and acetylated α-tubulin. Cultured hippocampal neurons from dissociated 1-day old rat brains were transfected with an enhanced green fluorescent protein (EGFP)-actin construct at 4-5 days using the calcium phosphate method [E. N. Star, D. J. Kwiatkowski and V. N. Murthy, Nat. Neurosci. […] K. Miranti and M. E. Greenberg, J. Neurosci. […] Transfected cultures were allowed to grow for at least 48 h before the addition of experimental compounds.
[^3H]Acetate-incorporated histones were isolated from butyrate-treated HeLa cells as described [J. Taunton, C. […] Immunoprecipitates were incubated with acetylated histones and HDAC activity determined by scintillation counting as described [J. Taunton, C. […] TDAC assays were performed with immunoprecipitates using MAP-stabilized microtubules polymerized from MAP-rich tubulin fraction as described [C. […] Reactions were incubated (2 h) at 37° C., then incubated on ice (15 min).

Chain of human FKBP12 (P62942 whole entry): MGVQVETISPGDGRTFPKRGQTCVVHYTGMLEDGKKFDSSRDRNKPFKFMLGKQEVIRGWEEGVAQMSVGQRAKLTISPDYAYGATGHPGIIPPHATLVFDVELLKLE

(αS)-2-acetyloxy)-N-[[4-[(4R,5S,6S)-4-[4-(hydroxymethyl)phenyl]-6-[[4,5-d]phenyl-2-oxazolyl)thio]methyl]61,3-dioxan-2-yl]phenyl]methyl-propionamide [compound 14]
binding to human FKBP12 on small molecule microarray (human FKBP12): bind to human FKBP12

CC(=O)O[C@H]1C(=O)[C@@]2(C)[C@H]([C@H](OC(=O)c3ccccc3)[C@]3(O)C[C@H](OC(=O)[C@H](O)[C@@H](NC(=O)c4ccccc4)c4ccccc4)C(C)=C1C3(C)C)[C@]1(OC(C)=O)CO[C@@H]1C[C@@H]2O [taxol, Paclitaxel]
effect on α-tubulin acetylation, stated as known (α-tubulin deacetylation): increases α-tubulin acetylation due to direct stabilization of microtubules
suppression by ITSA1, stated as known [1]: is not suppressed by ITSA1

C[C@H]1[C@@H](CN2CCC3(CC2)OCCO3)OC(c2cccc(NS(=O)(=O)c3ccccc3)c2)O[C@H]1c1ccc(CO)cc1 (mixture of isomers) [compound 10, (±)-N-[3-[(4S,5R,6R)-4-(1,4-dioxa-8-azaspiro[4.5]dec-8-ylmethyl)-6-[4-(hydroxymethyl)phenyl]-5-methyl-1,3-dioxan-2-yl]phenyl-benzenesulfonamide]
activity in Xenopus laevis oocyte extract cyclin B degradation assay [2]: Neither set of compounds was active in both assay systems
IC50 (HDAC1): ~1000 nM
activity in HeLa cell cyclin B degradation assay (cyclin B degradation): inhibitory activity
IC50 (HDAC6): ~1000 nM
